According to PubChem BioAssay AID2823 (Broad Institute, 2010):
pIC50: −log10 of the molar value. Activity calls are given as the source filed them. How the calls were made is not given here.

These molecules were tested against RanGTP-importin-beta complex (human Ran / KPNB1) (assay: disruptors of RanGTP/KPNB1 binding – biochemical, FRET, CFP/YFP, cell-free homogeneous, confirmation (AID 2823)). Settings: CFP-Ran/YFP-importin-beta FRET ratio.

| SMILES | IC50 | pIC50 |
| --- | --- | --- |
| CC1=NN(C(=O)c2ccccc2)C(O)(c2ccc(Br)cc2)C1 (stereo unspecified) | > 50 µM (inactive) | – |
| O=C(Cn1nnc2ccccc21)N/N=C\c1cccs1 | > 50 µM (inactive) | – |
| CSc1nsc2nc(=O)c(/C=C3\C=Nc4ccccc43)c(N)n12 | – | 4.65 |
| Cc1ccc(OCc2nnc(SCC(=O)CC(=O)Nc3ccccc3)o2)cc1 | > 50 µM (inactive) | – |
| C=CCn1c(O)c(N=NC(=S)Nc2ccccc2F)c2cc(S(=O)(=O)N3CCOCC3)ccc21 | > 50 µM (inactive) | – |
| COc1ccc2c(CC#N)c[nH]c2c1 | > 50 µM (inactive) | – |
| C=CCN1C(=O)/C(=C2/Sc3ccccc3N2CC)SC1=S | > 50 µM (inactive) | – |
| CCOc1ccc(N=Cc2c(O)n(-c3cccc(C)n3)c(=O)c3ccccc23)cc1 | > 26 µM (inactive) | – |
| COc1ccc(-c2nc(/C=C3\C(C)=Nc4ccccc43)c(O)o2)cc1 | > 50 µM (inactive) | – |
| CCc1cc(=O)oc2c(CNCc3ccc(OC)cc3OC)c(O)c(Cl)cc12 | – | 4.84 |
| COc1ccc(-n2c(N)c(C(=O)NCc3ccco3)c3nc4ccccc4nc32)c(OC)c1 | – | 4.66 |
| CC12OC1C1(O)CCCC1=CC2=O (stereo unspecified) | > 50 µM (inactive) | – |
| COc1ccc(CCNc2nc3ccccc3n3nnnc23)cc1OC | – | 4.40 |
| N=c1oc2ccccc2cc1-c1nc(-c2ccc(Cl)cc2)cs1 | – | 4.47 |
| COc1ccc2c(c1)O/C(=C\c1ccco1)C2=O | – | 4.74 |
| Cc1sc(NC(=O)c2ccccc2)c(C#N)c1-c1ccccc1 | > 50 µM (inactive) | – |
| CCc1ccccc1NC(=O)/C(C#N)=C\c1ccc(Sc2ccccc2)o1 | > 50 µM (inactive) | – |
| COc1ccc(C(=O)/C=C(\C)NCc2ccc3c(c2)OCO3)cc1 | > 50 µM (inactive) | – |
| COc1ccc(C(=O)c2cc3ccc(O)cc3oc2=O)cc1 | – | 4.78 |
| CN(C)CCCn1c(N)c(C#N)c2nc(C#N)c(C#N)nc21 | – | 4.66 |
| O=C(CCCO)NNc1c2ccccc2nc2ccccc12 | > 50 µM (inactive) | – |
| Nc1c(C(=O)OC2CCCCC2)c2nc3ccccc3nc2n1CC1CCCO1 (stereo unspecified) | – | 4.57 |

| SMILES | IC50 | pIC50 |
| --- | --- | --- |
| COCCNC(=O)/C(C#N)=C/c1ccc(-c2ccc(S(=O)(=O)N3CCOCC3)cc2)o1 | > 50 µM (inactive) | – |
| Cc1ccc(-c2nnn(CC(=O)N(c3ccccc3)C(C(=O)NCC3CCCO3)c3ccc(Cl)cc3)n2)cc1 (stereo unspecified) | > 50 µM (inactive) | – |
| CCOC(=O)c1ccc2[nH]cc(C(C)=O)c(=O)c2c1 | – | 4.90 |
| CCNc1nnc(CSc2nc3ccccc3s2)s1 | > 50 µM (inactive) | – |
| O=C(c1cc2ccccc2oc1=O)N1CCN(CCc2ccccc2)CC1 | – | 5.17 |
| C=CCn1c(N)c(C(=O)OC(C)CC)c2nc3ccccc3nc21 (stereo unspecified) | – | 4.70 |
| CCCSc1nnc(-c2c[nH]c3ccccc23)n1CC | > 50 µM (inactive) | – |
| CCCN(CCO)Cc1cccc(Br)c1 | > 50 µM (inactive) | – |
| Cn1c(=O)[nH]c2c(nc(-c3ccc(Cl)cc3)n2C)c1=O | – | 4.58 |
| COc1ccc(OC)c(Nc2c3ccccc3nc3ccccc23)c1 | > 50 µM (inactive) | – |
| COc1cc2cc(C(N)=O)c(N)nc2cc1OC | – | 4.99 |
| CCN1CCc2c(sc(NC(=O)c3ccc(S(=O)(=O)N4CC(C)OC(C)C4)cc3)c2C(N)=O)C1 (stereo unspecified) | > 50 µM (inactive) | – |
| Cc1cc(Cl)ccc1C(=O)C1CCCN(C(=O)c2n[nH]c3c2CCCC3)C1 (stereo unspecified) | > 50 µM (inactive) | – |
| O=C(Nc1ccc(OC(F)(F)F)cc1)c1ccc2nc[nH]c2c1 | > 50 µM (inactive) | – |
| CC1(C)CCC(=O)C=C1Nc1ccc(F)c(Cl)c1 | > 50 µM (inactive) | – |
| COc1ccccc1N1CCN(C(=O)/C=C/c2ccc(C)cc2)CC1 | > 50 µM (inactive) | – |
| CCOC(=O)C1=C(C)NC2=C(C(=O)C(C(=O)OCC)C(c3ccc(OC)cc3)C2)C1c1ccccn1 (stereo unspecified) | – | 4.55 |
| C=CCOc1c(Br)cc(CNc2ccc(NC(=O)C(C)C)c(OC)c2)cc1OC | > 50 µM (inactive) | – |
| Nc1nc2nc(-c3ccc(OCc4ccccc4)cc3)cc(C(F)(F)F)n2n1 | – | 5.39 |
| CCOC(=O)CNc1ncc([N+](=O)[O-])cc1C#N | > 50 µM (inactive) | – |
| Nc1ccccc1C(=O)NNc1c2ccccc2nc2ccccc12 | > 50 µM (inactive) | – |
| Cc1ccccc1Cn1nnc(-c2cccc(C(=O)O)c2)n1 | > 50 µM (inactive) | – |

| SMILES | IC50 | pIC50 |
| --- | --- | --- |
| Nc1nonc1-n1nnc(C(=O)N/N=C/c2ccccc2)c1CSc1ccc(Cl)cc1 | > 50 µM (inactive) | – |
| CCCOc1ccc(Cn2ccnc2)cc1[N+](=O)[O-] | > 50 µM (inactive) | – |
| COC(=O)C1=CN(C2CC2)C=C(C(=O)OC)C1c1ccc(C(F)(F)F)cc1 | – | 4.51 |
| CC(C)c1ccc(CN2CCC(Oc3ccc(C(=O)N4CCCC4)cc3)CC2)cc1 | > 50 µM (inactive) | – |
| CCOC(=O)c1ccc(NC(=O)CSc2nc(C)nc3c2c(=O)n(C)c(=O)n3C)cc1 | > 50 µM (inactive) | – |
| CC1CC(=O)N(CC(=O)Nc2cccc(Cl)c2)c2ccccc2S1(=O)=O (stereo unspecified) | > 50 µM (inactive) | – |
| CCOC(=O)N1CCN(c2cc(=O)n(-c3ccccc3C)c(=O)[nH]2)CC1 | > 50 µM (inactive) | – |
| CCOC(=O)c1c(/N=C/c2ccc(C)cc2O)sc2c1CCN(C)C2 | > 50 µM (inactive) | – |
| OCCNc1nc(-c2ccccc2)nc2ccccc12 | > 50 µM (inactive) | – |
| COc1cc(NC(=O)c2cc(-c3cccs3)on2)cc(OC)c1OC | > 50 µM (inactive) | – |
| O=C1NC(c2cccc([N+](=O)[O-])c2)Oc2ccccc21 (stereo unspecified) | > 50 µM (inactive) | – |
| NS(=O)(=O)c1ccc(CCNC(=O)C2CCN(S(=O)(=O)c3ccc(Br)s3)CC2)cc1 | > 50 µM (inactive) | – |
| COCCn1c(N)c(C(=O)OCc2ccccc2)c2nc3ccccc3nc21 | – | 4.33 |
| Cc1nn(C(=O)c2ccco2)c(C)c1CN1C(=O)c2ccccc2C1=O | > 50 µM (inactive) | – |
| N#CC1=C(N)OC2=C(CCc3ccccc32)C1c1ccccc1 (stereo unspecified) | > 50 µM (inactive) | – |
| Fc1ccc(N/N=C/C=C/c2ccccc2)c(F)c1 | > 50 µM (inactive) | – |
| Cc1c(CC(=O)O)c(=O)oc2c(C)c3occ(-c4ccc(F)cc4)c3cc12 | > 50 µM (inactive) | – |
| Cc1ccc(OCC(=O)N2CCCCCC2)c(C)c1 | > 50 µM (inactive) | – |
| O=Cc1ccc(N2Cc3ccccc3C2)cc1 | > 50 µM (inactive) | – |
| COCc1ccc(CN2CCCC(CO)(Cc3ccccc3C)C2)o1 (stereo unspecified) | > 50 µM (inactive) | – |
| CN(C)S(=O)(=O)c1cccc(NC(=O)CNC2CCCCC2)c1 | > 50 µM (inactive) | – |
| CCC(C)c1ccc(OCC(=O)O)cc1 (stereo unspecified) | > 50 µM (inactive) | – |

| SMILES | IC50 | pIC50 |
| --- | --- | --- |
| COC(=O)c1n[nH]c2ccccc12 | – | 4.32 |
| CCC(c1nnnn1C1CCCC1)N1CCC(C(N)=O)CC1 (stereo unspecified) | > 50 µM (inactive) | – |
| Oc1c(C=Nc2ccccc2)sc(=S)n1Cc1ccccc1 | > 50 µM (inactive) | – |
| O=C(CCN1CCC(c2ccc(Cl)s2)=N1)c1ccc(Cl)s1 | > 50 µM (inactive) | – |
| CC(C)Cc1nn2c(N)c(/C=C3\C=Nc4ccccc43)c(=O)nc2s1 | > 50 µM (inactive) | – |
| C/C(=N\OCC(=O)OCC(=O)NC(=O)c1ccccc1)c1ccc2c(c1)OCO2 | > 50 µM (inactive) | – |
| CC(c1nc2ccccc2n1Cc1ccccc1)N1CCCCC1 (stereo unspecified) | > 50 µM (inactive) | – |
| COCC(=O)Nc1nnc(COc2ccc(Cl)cc2)s1 | > 50 µM (inactive) | – |
| C=CCN1C(=O)/C(=C\c2ccc(OC(=O)c3ccco3)c(OC)c2)SC1=S | > 50 µM (inactive) | – |
| CC(C)NC(=O)C1CC=CCC1C(=O)O (stereo unspecified) | > 50 µM (inactive) | – |
| Cc1ccc(-c2c(C(=O)N/N=C/c3ccc4c(c3)OCO4)nnn2-c2nonc2N)cc1 | > 50 µM (inactive) | – |
| COc1ccc2cc(C#N)c(N3CCN(C(=O)c4ccccc4C)CC3)nc2c1 | > 50 µM (inactive) | – |
| Cc1cccc(C(=O)Nc2sc(C)c(-c3ccccc3)c2C#N)c1 | > 50 µM (inactive) | – |
| CC(=O)N1CCc2c(sc(NC(=O)CCS(=O)(=O)c3ccc(C)cc3)c2C(N)=O)C1 | – | 4.51 |
| CCC(CC)COC(=O)C1=C(C)NC(=O)NC1c1ccc(N(C)C)cc1 (stereo unspecified) | > 50 µM (inactive) | – |
| O=c1cc(CN2CCN(Cc3ccccc3)CC2)c2ccc(O)cc2o1 | – | 4.95 |
| Cn1c(N)c(C(=O)COC(=O)C2(c3ccc(F)cc3)CCCC2)c(=O)n(C)c1=O | > 50 µM (inactive) | – |
| O=C(c1ccco1)N1CCN(c2cc(=O)n(-c3ccc(Cl)cc3)c(=O)[nH]2)CC1 | > 50 µM (inactive) | – |
| COc1ccccc1CNC(=O)COC(=O)Cc1ccc(Cl)cc1 | > 50 µM (inactive) | – |
| O=C(COC(=O)CSCC(=O)N1CCCCC1)Nc1ccc(Cl)cc1 | > 50 µM (inactive) | – |
